# Reference: patent US20250290915A1, “METHOD FOR PREDICTING RESPONSIVENESS TO THERAPY” (CANCERTAIN LIMITED, priority 2022, published 2025)
# Legend:
# [1] = tested on: Circulating Tumour Cells (CTCs) from a patient with lung cancer (adenocarcinoma); assay: Drug response score assay on CTCs (with CD45+ cells for immunotherapy) from blood, Example 5; type: cell-based, human; conditions: for Drug response score, conc. 1: conc. 1: Niv 20 μg/ml, Gm 2 μg/ml, Vin 20 μg/ml, Gf 100 ng/ml, E 0.75 μg/ml, Afa 20 ng/ml, Metho 0.5 μg/ml, Cz 200 ng/ml, Pal 40 ng/ml (CTCs); for Drug response score, conc. 1 / Drug response score, conc. 2: Pem 20 μg/ml (CTCs + CD45+ cells); for Drug response score, conc. 1 / Drug response score, conc. 2 / Drug response score, conc. 3 / Drug response score, conc. 4: t96h; for Drug response score, conc. 2: conc. 2: Niv 20 μg/ml, Gm 10 μg/ml, Vin 40 μg/ml, Gf 200 ng/ml, E 1.5 μg/ml, Afa 50 ng/ml, Metho 1 μg/ml, Cz 1000 ng/ml, Pal 80 ng/ml (CTCs); for Drug response score, conc. 3: conc. 3: Niv 80 μg/ml, Pem 100 μg/ml (CTCs + CD45+ cells), Gm 20 μg/ml, Vin 80 μg/ml, Gf 600 ng/ml, E 3 μg/ml, Afa 100 ng/ml, Metho 2 μg/ml, Cz 2000 ng/ml, Pal 160 ng/ml (CTCs); for Drug response score, conc. 4: conc. 4: Niv 160 μg/ml, Pem 160 μg/ml (CTCs + CD45+ cells), Gm 40 μg/ml, Vin 200 μg/ml, Gf 1200 ng/ml, E 6 μg/ml, Afa 150 ng/ml, Metho 4 μg/ml, Cz 4000 ng/ml, Pal 320 ng/ml (CTCs); for Drug sensitivity as calculated by the assay (interpretation of Drug Response Scores): Table 17
# Protocol: (§1) CD45^+ cells and circulating tumour cells (CTCs) were isolated from a blood sample provided by each subject.
# (§2) CD45 separation was performed by adding human CD45 microbeads (50 μl/ml blood), incubating for 15 minutes at 4° C. and then processing using an AutoMACS machine. This separates the blood sample into CD45^+ and CD45^−cells in 2 separate falcons. The falcon tubes are then centrifuged at 1200 rpm for 5 minutes.
# The supernatant was removed from the CD45^+falcon tube, and the cells resuspended in DMEM with 2 μl Cell Tox, 2 μl MT and 2 μl MT. 20 μl of the resuspended CD45^+ cells was then plated in each well which will contain an immunotherapy treatment.
# (§3) The supernatant was removed from the CD45^−falcon tube, and the CD45^−cells contacted with 100 μl of FcR block and 100 μl of CD326 (EpCAM) MicroBeads, followed by incubation at […] 4° C. for 30 minutes. The CD45^−cells were then processed using an AutoMACS machine to separate the EpCAM positive and negative cells into 2 separate falcon tubes. The EpCAM-cells were discarded. The supernatant was removed from the EpCAM^+ cells, and the cells resuspended in DMEM with 2 μl Cell Tox, 2 μl MT and 2 μl MT. 20 μl of the resuspended pellet was then added to all sample wells excluding a blank. After all wells are added to, a cell count was conducted on the […] to determine the number of circulating tumour cells (CTCs).
# (§4) The different cell types were each divided equally into populations, depending on the number of drugs/concentrations to be tested and plated on a cell-culture plate pre-coated with a scaffold of polycaprolactone (PCL) electrospun fibres and incubated at 37° C., 5% CO2, for 5 to (typically 10) minutes to facilitate cell attachment. After attachment, an initial imaging step was carried out using the RealTime-Glo™ MT assay from Promega (Catalogue No. G9711)) and the CellTox™ Green Cytotoxicity Assay (Promega, Catalogue No. G8741), carried out according to manufacturer's instructions. Following this initial imagining, the immunotherapeutic and/or chemotherapeutic agents were added to the cell populations as indicated below. After 10 minutes, the imagining step was repeated. The cell populations were then incubated at 37° C., 5% CO2 for 48 hours. The imaging step was then repeated. The cell populations were then re-dosed with the same immunotherapeutic and/or chemotherapeutic agents as indicated below, and incubated at 37° C., 5% CO2 for a further 48 hours. After this second 48 hour incubation, the imagining step was repeated for a final time.
# (§5) At the end of this culture period, dose response scores were calculated using a normalized drug response metric as described in Gupta et al. (Communications Biology volume 3, Article number: 42 (2020), https://doi.org/10.1038/s42003-020-0765-z). The start readout for a given immunotherapeutic or chemotherapeutic agent at a given concentration was the to readout for said immunotherapeutic or chemotherapeutic agent at a specified concentration. The end readout for a given immunotherapeutic or chemotherapeutic agent at a given concentration was the final timepoint reading (t96h) for said immunotherapeutic or chemotherapeutic agent at a specified concentration.
# (§6) The positive control start readout for a given drug/concentration was the to readout for the corresponding drug at a specified concentration. The positive control end readout for the corresponding drug at a specified concentration was the final timepoint reading (t96h) for the corresponding blank well.
# (§7) The negative control start and end readouts for a given immunotherapeutic or chemotherapeutic agent at a given concentration were the to and final timepoint reading (t96h) respectively for blank cell or blank immuno cell well respectively.
# The sensitivity or resistance of a subject's cancer to a given immunotherapeutic or chemotherapeutic agent was determined based on the calculated drug response score as shown in Table 2. […]
# [2] = tested on: Circulating Tumour Cells (CTCs) from a patient with sex cord stromal tumour, ovarian tumour; assay: Drug response score assay on CTCs from blood, Example 4; type: cell-based, human; set-up: key to Drug response score, conc. 1 / Drug response score, conc. 2 / Drug response score, conc. 3 / Drug response score, conc. 4: normalized drug response metric (Gupta et al. 2020); conditions: for Drug response score, conc. 1: conc. 1: Cyclo 2.5 μg/ml, Vinc 10 ng/ml, Etop 1 μg/ml, Bini 100 ng/ml, Doxo 10 ng/ml; for Drug response score, conc. 1 / Drug response score, conc. 2 / Drug response score, conc. 3 / Drug response score, conc. 4: CTCs, t96h; for Drug response score, conc. 2: conc. 2: Cyclo 10 μg/ml, Vinc 20 ng/ml, Etop 4 μg/ml, Bini 200 ng/ml, Doxo 30 ng/ml; for Drug response score, conc. 3: conc. 3: Cyclo 40 μg/ml, Vinc 40 ng/ml, Etop 20 μg/ml, Bini 400 ng/ml, Doxo 90 ng/ml; for Drug response score, conc. 4: conc. 4: Cyclo 160 μg/ml, Vinc 80 ng/ml, Etop 100 μg/ml, Bini 800 ng/ml, Doxo 270 ng/ml; for effectiveness on Circulating Tumour Cells (CTCs) under laboratory conditions / Drug sensitivity as calculated by the assay (interpretation of Drug Response Scores): sex cord stromal / ovarian tumour CTCs; for Drug sensitivity as calculated by the assay (interpretation of Drug Response Scores): Table 14
# Protocol: as §1, §2, §3, §4, §5, §6, §7
# The sensitivity or resistance of a subject's cancer to a given immunotherapeutic or chemotherapeutic agent was determined based on the calculated drug response score as shown in Table 2.
# Blood samples from a patient with sex cord stromal tumour, ovarian tumour (epitheliod neoplasm, stage 3 recurrence after surgery (resection) and previous chemotherapy) were received on 19 Jul. 2021 and tested using a 5 drug panel. […]
compound,measurement,setting,value
Pembrolizumab,"Drug response score, conc. 1",[1],−0.34
same,"Drug response score, conc. 2",[1],−0.15
same,"Drug response score, conc. 3",[1],0.05
same,"Drug response score, conc. 4",[1],0.24
same,Drug sensitivity as calculated by the assay (interpretation of Drug Response Scores),[1]; lung cancer CTCs,S++
COc1cc([C@@H]2c3cc4c(cc3[C@@H](O[C@@H]3O[C@@H]5CO[C@@H](C)O[C@H]5[C@H](O)[C@H]3O)[C@H]3COC(=O)[C@H]23)OCO4)cc(OC)c1O [Etoposide],"Drug response score, conc. 1",[2],0.79
same,"Drug response score, conc. 2",[2],1.06
same,"Drug response score, conc. 3",[2],1.19
same,"Drug response score, conc. 4",[2],1.35
same,effectiveness on Circulating Tumour Cells (CTCs) under laboratory conditions,[2],not effective
same,Drug sensitivity as calculated by the assay (interpretation of Drug Response Scores),[2],Resistant
Nivolumab,"Drug response score, conc. 1",[1],−0.45
same,"Drug response score, conc. 2",[1],−0.80
same,"Drug response score, conc. 3",[1],−0.12
same,"Drug response score, conc. 4",[1],−0.22
same,effectiveness on Circulating Tumour Cells (CTCs) under laboratory conditions,[1]; lung cancer CTCs,more effective than Pembrozulimab
same,Drug sensitivity as calculated by the assay (interpretation of Drug Response Scores),[1]; lung cancer CTCs,S++
COc1cccc2c1C(=O)c1c(O)c3c(c(O)c1C2=O)C[C@@](O)(C(=O)CO)C[C@@H]3O[C@H]1C[C@H](N)[C@H](O)[C@H](C)O1 [Doxorubicin],"Drug response score, conc. 1",[2],0.68
same,"Drug response score, conc. 2",[2],0.93
same,"Drug response score, conc. 3",[2],0.54
same,"Drug response score, conc. 4",[2],0.93
same,effectiveness on Circulating Tumour Cells (CTCs) under laboratory conditions,[2],show effectiveness
same,Drug sensitivity as calculated by the assay (interpretation of Drug Response Scores),[2],Sensitive (S++)
